# pEC50, pKi: −log10 of the molar value.
# Columns and labels:
# [1] = biological target: human BRD4 first bromodomain (BDI_K57-E168) (Homo sapiens (Human), UniProt O60885); assay: TR-FRET bromodomain binding assay, BRD4 first bromodomain
# [2] = biological target: human BRD4 second bromodomain (BDII_E352-M457) (Homo sapiens (Human), UniProt O60885); assay: TR-FRET bromodomain binding assay, BRD4 second bromodomain
# [3] = system: breast cancer cell line MX-1; assay: MX-1 cell line proliferation assay; type: cell-based, human; conditions: Homo sapiens, MX1, 72 h; MX-1 cells, 3-day proliferation, Cell Titer Glo; read-out: Cellular proliferation: EC50
# [4] = Human liver microsome stability assay; type: in vitro ADME; conditions: both sexes, human, microsomes, pH 7.4
# [5] = Rat liver microsome stability assay; type: in vitro ADME; conditions: rat liver microsomes (male Sprague-Dawley), 0.5 μM test compound, pH 7.4, 37° C.; for half-life at 0.5 μM: 0.25 mg/mL microsomal protein, read-out: Stability in rat liver microsomes (t1/2 in minutes)
# [6] = Mouse liver microsome stability assay; type: in vitro ADME; conditions: male, CD1, mouse, microsomes, pH 7.4
smiles,measurement,setting,value
"CC(=O)Nc1ccc(Oc2ccccc2)c(-c2cn(C)c(=O)c3[nH]ccc23)c1 [Example 6, N-[3-(6-methyl-7-oxo-6,7-dihydro-1H-pyrrolo[2,3-c]pyridin-4-yl)-4-phenoxyphenyl]acetamide]",pKi,[1],8.28
same,pKi,[2],8.24
same,pEC50,[3],7.34
same,half-life at 0.5 μM,[4],30 min
same,half-life at 0.5 μM,[5],7 min
same,half-life at 0.5 μM,[6],3 min
"Cc1ccc(S(=O)(=O)n2ccc3c(-c4cc(NS(C)(=O)=O)ccc4Oc4ccccc4)cn(C)c(=O)c32)cc1 [Example 7, N-(3-{6-methyl-1-[(4-methylphenyl)sulfonyl]-7-oxo-6,7-dihydro-1H-pyrrolo[2,3-c]pyridin-4-yl}-4-phenoxyphenyl)methanesulfonamide]",pKi,[1],6.92
same,pKi,[2],7.11
same,pEC50,[3],< 5.52
same,half-life at 0.5 μM,[4],12 min
same,half-life at 0.5 μM,[5],2 min
same,half-life at 0.5 μM,[6],4 min
"CN(c1ccc(Oc2ccccc2)c(-c2cn(C)c(=O)c3[nH]ccc23)c1)S(C)(=O)=O [Example 8, N-methyl-N-[3-(6-methyl-7-oxo-6,7-dihydro-1H-pyrrolo[2,3-c]pyridin-4-yl)-4-phenoxyphenyl]methanesulfonamide]",pKi,[1],8.59
same,pKi,[2],8.41
same,pEC50,[3],7.61
same,half-life at 0.5 μM,[4],19 min
same,Stability in rat liver microsomes (t1/2 in minutes),[5]; […] microsomal protein,1 min
same,half-life at 0.5 μM,[6],9 min
"Cn1cc(-c2cc(C(=O)O)ccc2Oc2ccccc2)c2cc[nH]c2c1=O [Example 10, 3-(6-methyl-7-oxo-6,7-dihydro-1H-pyrrolo[2,3-c]pyridin-4-yl)-4-phenoxybenzoic acid]",pKi,[1],7.81
same,pKi,[2],8.07
same,pEC50,[3],< 5.52
same,half-life at 0.5 μM,[4],78 min
same,half-life at 0.5 μM,[5],> 120 min
same,half-life at 0.5 μM,[6],> 120 min
"CCNC(=O)c1ccc(Oc2ccccc2)c(-c2cn(C)c(=O)c3[nH]ccc23)c1 [Example 13, N-ethyl-3-(6-methyl-7-oxo-6,7-dihydro-1H-pyrrolo[2,3-c]pyridin-4-yl)-4-phenoxybenzamide]",pKi,[1],8.43
same,pKi,[2],8.47
same,pEC50,[3],6.89
same,half-life at 0.5 μM,[4],66 min
same,half-life at 0.5 μM,[5],2 min
same,half-life at 0.5 μM,[6],22 min
"Cn1cc(-c2cc(C(=O)NCC3CCCO3)ccc2Oc2ccccc2)c2cc[nH]c2c1=O (stereo not drawn) [Example 14, 3-(6-methyl-7-oxo-6,7-dihydro-1H-pyrrolo[2,3-c]pyridin-4-yl)-4-phenoxy-N-(tetrahydrofuran-2-ylmethyl)benzamide]",pKi,[1],8.26
same,pKi,[2],7.91
same,pEC50,[3],6.77
same,half-life at 0.5 μM,[4],37 min
same,half-life at 0.5 μM,[5],6 min
same,half-life at 0.5 μM,[6],8 min
"CCN(C)C(=O)c1cc2c(-c3cc(NS(C)(=O)=O)ccc3Oc3ccccc3)nn(C)c(=O)c2[nH]1 [Example 83, N-ethyl-N,6-dimethyl-4-{5-[(methylsulfonyl)amino]-2-phenoxyphenyl}-7-oxo-6,7-dihydro-1H-pyrrolo[2,3-d]pyridazine-2-carboxamide]",pKi,[1],7.68
same,pKi,[2],7.37
same,pEC50,[3],6.37
same,half-life at 0.5 μM,[5],3 min
same,half-life at 0.5 μM,[6],43 min
"CN(C)Cc1cc2c(-c3cc(S(C)(=O)=O)ccc3Oc3ccc(F)cc3F)cn(C)c(=O)c2[nH]1 [Example 279, 4-[2-(2,4-difluorophenoxy)-5-(methylsulfonyl)phenyl]-2-[(dimethylamino)methyl]-6-methyl-1,6-dihydro-7H-pyrrolo[2,3-c]pyridin-7-one]",pKi,[1],7.50
same,pKi,[2],6.88
same,pEC50,[3],6.44
same,half-life at 0.5 μM,[5],41 min
same,half-life at 0.5 μM,[6],91 min
"Cn1cc(-c2cc(-c3cccc(F)c3)ccc2OCC2CC2)c2cc[nH]c2c1=O [Example 334, 4-[4-(cyclopropylmethoxy)-3′-fluorobiphenyl-3-yl]-6-methyl-1,6-dihydro-7H-pyrrolo[2,3-c]pyridin-7-one]",pKi,[1],6.18
same,pKi,[2],5.93
same,pEC50,[3],6.29
same,half-life at 0.5 μM,[4],34 min
same,half-life at 0.5 μM,[6],21 min

# Source: patent publication US9296741B2, “Bromodomain inhibitors” (priority 2012, dated 2016)
